According to patent publication US7642277B2, “Non-nucleoside reverse transcriptase inhibitors” (Boehringer Ingelheim International GmbH, priority 2002, dated 2010):
Read-outs that look alike come from different tables or passages of the source.

Legend:
[1] = molecular target: T1, HIV-1 RT resistant mutant K103N/Y181C (Human immunodeficiency virus type 1 group M subtype B, UniProt P04585, K690N/Y768C); assay: Reverse transcriptase (RT) enzymatic assay (IC50), PicoGreen fluorescence, resistant mutant; format: biochemical
T1 construct: The reverse transcriptase (RT) enzyme assay has been adapted to a 96-well microtiter plate format

[2] = molecular target: T2, HIV-1 RT enzyme (wild type) (Human immunodeficiency virus type 1 group M subtype B, UniProt P04585); assay: Reverse transcriptase (RT) enzymatic assay (IC50), PicoGreen fluorescence, wild type; format: biochemical
T2 construct: The reverse transcriptase (RT) enzyme assay has been adapted to a 96-well microtiter plate format
Method in brief: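 Enzyme at ≈10 nM in 50 mM Tris/HCl pH 7.8 with 60 mM NaCl, 2 mM MgCl2, 6 mM DTT, 2 mM GSH, 0.02% Chaps; 15 min preincubation with compound at room temperature, then substrate added and run 50 min at 37 °C. EDTA quench; product DNA read by PicoGreen fluorescence.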

HIV-1 (wild type) = assay: P24 cellular assay (EC50), data identified with * in Table 9, wild type; format: cell-based
Text: (§1) P24 Cellular Assay (EC50) (Data Identified with * in Table 9).
(§2) The p24 assay is as described in WO 01/96338, the contents of which are herein incorporated by reference.
(§3) The results are listed in Table 9 as IC50(nM) and EC50 (nM).
(§4) Table legend: A=>100; B=100-50; C=<50; NT=not tested

[3] = system: HIV-1 resistant mutant K103N/Y181C; assay: P24 cellular assay (EC50), data identified with * in Table 9, resistant mutant; format: cell-based; conditions: Human immunodeficiency virus 1, read-out: EC50 K103N/Y181C
Text: as §1, §2, §3, §4

[4] = RT enzymatic assay, wild type, read-out: IC50 WT

EC50 (HIV-1 (wild type)) [nM]	SMILES	IC50 [1] [nM]	IC50 [2] [nM]	EC50 (HIV-1 (wild type); Human immunodeficiency virus 1) [nM]	EC50 [3] [nM]	IC50 [2, 4] [nM]
	Clc1ccccc1[C@@H]1C[C@H]1CSc1nnnn1-c1cccc2ccccc12 (relative stereo) [Entry 316, trans-5-{{{2-(2-Chlorophenyl)cyclopropyl}methyl}thio}-1-(1-naphthalenyl)-1H-tetrazole]	> 100	50 to 100	< 50		
	O=C(CSc1nnnn1-c1cccc2ccccc12)Nc1ccccc1[N+](=O)[O-] [Entry 101, 2-{{1-(1-Naphthalenyl)-1H-tetrazol-5-yl}thio}-N-(2-nitrophenyl)acetamide]			< 50	> 100	
	CN(C)c1ccc(-n2nnnc2SCC(=O)Nc2ccccc2[N+](=O)[O-])c2ccccc12 [Entry 102]	> 100	< 50	< 50		
	O=C(CSc1nnnn1-c1ccc2ccccc2c1)Nc1ccccc1[N+](=O)[O-] [Entry 103]	> 100	< 50	< 50	> 100	
	O=C(CSc1nnnn1-c1cccc2c1CCCC2)Nc1ccccc1[N+](=O)[O-] [Entry 104]	> 100	< 50	< 50	> 100	
	O=C(CSc1nnnn1-c1ccc2c(c1)CCC2)Nc1ccccc1[N+](=O)[O-] [Entry 105]	> 100	< 50	< 50	> 100	
	Cc1ccccc1-n1nnnc1SCC(=O)Nc1ccccc1[N+](=O)[O-] [Entry 109]	> 100	50 to 100	< 50	> 100	
	O=C(CSc1nnnn1-c1ccccc1C(F)(F)F)Nc1ccccc1[N+](=O)[O-] [Entry 111]	> 100	50 to 100	< 50	> 100	
	O=C(CSc1nnnn1-c1ccccc1F)Nc1ccccc1[N+](=O)[O-] [Entry 113]	> 100	< 50	< 50		
	O=C(CSc1nnnn1-c1ccccc1Cl)Nc1ccccc1[N+](=O)[O-] [Entry 114]	> 100	< 50	< 50	> 100	
	COc1ccccc1-n1nnnc1SCC(=O)Nc1ccccc1[N+](=O)[O-] [Entry 115]	> 100	50 to 100	< 50	> 100	
	CSc1ccccc1-n1nnnc1SCC(=O)Nc1ccccc1[N+](=O)[O-] [Entry 116]	> 100	< 50	< 50		
	COC(=O)c1ccccc1-n1nnnc1SCC(=O)Nc1ccccc1[N+](=O)[O-] [Entry 117]	> 100			> 100	< 50
	Cc1cccc(-n2nnnc2SCC(=O)Nc2ccccc2[N+](=O)[O-])c1 [Entry 118]	> 100	50 to 100	< 50	> 100	
	Cc1cccc(-n2nnnc2SCC(=O)Nc2ccccc2[N+](=O)[O-])c1C [Entry 122]	> 100	< 50	< 50	> 100	
	O=C(CSc1nnnn1-c1cccc(Cl)c1Cl)Nc1ccccc1[N+](=O)[O-] [Entry 123]	> 100			50 to 100	< 50
	Cc1c(Cl)cccc1-n1nnnc1SCC(=O)Nc1ccccc1[N+](=O)[O-] [Entry 124]	> 100	< 50	< 50	50 to 100	
	Cc1ccc(-n2nnnc2SCC(=O)Nc2ccccc2[N+](=O)[O-])c(C)c1 [Entry 125]	> 100	< 50	< 50	> 100	
	COc1ccc(-n2nnnc2SCC(=O)Nc2ccccc2[N+](=O)[O-])c(C)c1 [Entry 127]	> 100	< 50	< 50	> 100	

EC50 (HIV-1 (wild type)) [nM]	SMILES	IC50 [1] [nM]	IC50 [2] [nM]	EC50 (HIV-1 (wild type); Human immunodeficiency virus 1) [nM]	EC50 [3] [nM]	IC50 [2, 4] [nM]
	Cc1cc(Cl)ccc1-n1nnnc1SCC(=O)Nc1ccccc1[N+](=O)[O-] [Entry 128]	> 100	> 100	< 50	> 100	
	Cc1ccc(-n2nnnc2SCC(=O)Nc2ccccc2[N+](=O)[O-])c(Cl)c1 [Entry 129]	> 100	< 50	< 50	< 50	
	Cc1ccc(-n2nnnc2SCC(=O)Nc2ccccc2[N+](=O)[O-])c(Br)c1 [Entry 130]	> 100	< 50	< 50		
	COc1cc(-n2nnnc2SCC(=O)Nc2ccccc2[N+](=O)[O-])c(Cl)cc1Cl [Entry 133]	> 100	< 50	< 50	> 100	
	CC(C)Oc1cc(-n2nnnc2SCC(=O)Nc2ccccc2[N+](=O)[O-])c(Cl)cc1Cl [Entry 134]	> 100	< 50	< 50	> 100	
	Cc1ccc(F)cc1-n1nnnc1SCC(=O)Nc1ccccc1[N+](=O)[O-] [Entry 135]	> 100	< 50	< 50	> 100	
	COc1ccc(Cl)cc1-n1nnnc1SCC(=O)Nc1ccccc1[N+](=O)[O-] [Entry 136]	> 100	50 to 100	< 50	> 100	
	Cc1cccc(Cl)c1-n1nnnc1SCC(=O)Nc1ccccc1[N+](=O)[O-] [Entry 139]	> 100	< 50	< 50		
	O=C(CSc1nnnn1-c1cccc2ccccc12)Nc1ccccc1Br [Entry 209]		< 50	> 100		
	O=C(CSc1nnnn1-c1cccc2ccccc12)Nc1ccccc1I [Entry 210]		50 to 100	< 50	> 100	
	O=C(CSc1nnnn1-c1cccc2ccccc12)Nc1cccc(F)c1F [Entry 230]		50 to 100	50 to 100	> 100	
	O=C(CSc1nnnn1-c1cccc2ccccc12)Nc1ccc(Cl)cc1Cl [Entry 234]		50 to 100	50 to 100	> 100	
	COC(=O)c1ccc(NC(=O)CSc2nnnn2-c2cccc3ccccc23)c(Cl)c1 [Entry 235]	> 100	< 50	< 50		
	S=C(CSc1nnnn1-c1cccc2ccccc12)Nc1ccccc1Cl [Entry 308]		> 100	50 to 100		
	OC(CCSc1nnnn1-c1cccc2ccccc12)c1ccccc1Cl (stereo not drawn) [Entry 317, 5-{{3-(2-Chlorophenyl)-3-hydroxypropyl}thio}-1-(1-naphthalenyl)-1H-tetrazole]	> 100	50 to 100	< 50		
	OC(CSc1nnnn1-c1cccc2ccccc12)Cc1ccccc1Cl (stereo not drawn) [Entry 318, 5-{{3-(2-Chlorophenyl)-2-hydroxypropyl}thio}-1-(1-naphthalenyl)-1H-tetrazole]	> 100	50 to 100	< 50		
	OC(CNc1ccccc1Cl)CSc1nnnn1-c1cccc2ccccc12 (stereo not drawn) [Entry 330, 5-{{3-{(2-Chlorophenyl)amino}-2-hydroxypropyl}thio}-1-(1-naphthalenyl)-1H-tetrazole]	> 100	50 to 100	< 50		
< 50	O=C(CSc1nc(-c2cccc3ccccc23)c[nH]1)Nc1ccccc1[N+](=O)[O-] [Entry 401, 2-{{4-(1-Naphthalenyl)-1H-imidazol-2-yl}thio}-N-(2-nitrophenyl)acetamide]					
	O=C(COc1ccccc1-c1cccc2ccccc12)Nc1ccccc1[N+](=O)[O-] [Entry 409]			> 100		> 100
